Experimental data taken from ChEMBL document CHEMBL1158888, “New bioactive rosigenin analogues and aromatic polyketide metabolites from the freshwater aquatic fungus Massarina tunicata” (2003).
Activity calls are given as the source filed them. The calls are words filed in the database; no cut-off is given here.

What was measured:
Bacillus subtilis [1] = assay: Antimicrobial activity against Bacillus subtilis ATCC 6051 at 200 ug/disk by standard disk assay
Bacillus subtilis [2] = assay: Antimicrobial activity against Bacillus subtilis ATCC 6051 at 200 ug/ml by standard disk assay; format: functional; details: read-out: IZ
Staphylococcus aureus = assay: Antimicrobial activity against Staphylococcus aureus ATCC 29213 at 200 ug/ml by standard disk assay; format: functional; details: read-out: IZ

Structure (SMILES) | Activity (Bacillus subtilis [1]) | zone of inhibition at 200 µg/mL (Bacillus subtilis [2]) | zone of inhibition at 200 µg/mL (Staphylococcus aureus)
C=C1OC(=O)[C@]2([C@H](C)CCC(=O)[C@@H]2O)[C@H]1O | inactive |  | 
C=C1OC(=O)[C@]2([C@H](C)C=C[C@H](O)[C@@H]2O)[C@@H]1O [MASSARIGENIN A] |  | 11 mm | 
C=C1OC(=O)[C@]2([C@H](C)C=CC(=O)[C@H]2O)[C@H]1O [MASSARIGENIN D] |  | 14 mm | 
COc1c(C)cc(O)c(C(=O)c2c(O)ccc3c2OC(C)(C)C=C3)c1C=O [MASSARININ A] |  | 17 mm | 7 mm
C=C1OC(=O)[C@]2([C@H](C)C=CC(=O)[C@@H]2O)[C@H]1O [MASSARIGENIN C] |  | 9 mm | 
C[C@H]1CC(=O)c2c(coc2-c2c(O)ccc3c2OC(C)(C)C=C3)[C@@H]1O [MASSARININ B] |  | 23 mm | 12 mm
C#C[C@H](O)COc1ccc(C(=O)O)cc1 |  | 15 mm | 
